In patent USRE34630E, “Substituted isoquinolines and methods of using same” (Euroceltique, S.A., priority 1992, dated 1994):
Where two headings read alike, the source gives them in different places.

How the values were obtained:
[1] = tested on: human neutrophils (PAF-induced degranulation); test: PAF-induced degranulation (myeloperoxidase release) of human neutrophils; format: cell-based; conditions: Neutrophil
Protocol: (§1) The cellular responses studied include (1) PAF-induced release of preloaded, radiolabeled serotonin from rabbit platelets, (2) PAF-induced degranulation (release of myeloperoxidase) from purified human nuetrophils and (3) PAF-induced adhesion of human neutrophils to latex beads. Each putative antagonist was tested at 30 μM for its effect on each response. Selected compounds were tested in a concentration-response fashion.
Neutrophils are isolated from human venous blood via a two-step sedimentation procedure, and contaminating erythrocytes are selectively lysed. The neutrophils were preincubated in 0.25% Hanks buffer containing bovine serum albumin (BSA) with 5 ug Cytochalasin B/ ml cells for 5 minutes at 37° C. Neutrophils (4×10^6) are added to stimuli (PAF or buffer control) in the presence and absence of antagonist in Krebs-Ringer buffer to a final volume of 1.0 ml, and incubated at 37° C. for appropriate periods of time. At the end of the reaction period the neutrophils are pelleted by centrifugation at 3000 rpm for 5 minutes at 4° C.
Aliquots (0.2 ml) of the supernatants are added to polysyrene tubes to which are added the following: 0.6 ml)>25% Hanks BSA, 0.5 ml MPO buffer (0.2 M NaPO4, pH 6.2) and to start the color reaction 0.2 ml of a 1:1 v/v 0.05% H2 O2 :1.25 mg/ml dimethoxybenzidine (DMB). The reaction is allowed to run at room temperature for 15 minutes and is stopped by the addition of 0.05 ml 2% sodium azide. The developed color is quantitated in a spectrophotometer at 460 nm. The amount of myeloperoxidase (MPO) released by PAF stimulation can thus be determined. In order to determine the total amount of MPO in the cells an unstimulated control tube of neutrophils is lysed using 0.01 ml 10% Triton TX and the total MPO is determined via the color reaction and spectrophotometer reading. The activity of a given concentration of PAF is expressed as the percentage of the total MPO released. The activity of antagonists at a given concentration is expressed as a percentage of inhibition of PAF-induced MPO released at a single concentration of PAF.

[2] = tested on: rabbit platelets (PAF-induced serotonin release); test: PAF-induced release of tritiated serotonin from rabbit platelets; format: cell-based, rabbit (New Zealand White); conditions: Oryctolagus cuniculus, Platelet; for inhibition at 30 µM: read-out: Platelet Serotonin Release % Inhibition at 30 uM, 30 uM; for IC50: read-out: Platelet Serotonin Release I50
Protocol: as §1
Blood is collected from the central ear artery of New Zealand White rabbits into a 1:7 volume of acid citrate dextrose. The blood is centrifuged at 1100 rpm for 20 minutes. The isolated platelet rich plasma (PRP) is then incubated at 37° C. for 30 minutes with 1 μCi^3 H-serotonin binoxalate per ml PRP. Labeled platelets are pelleted by centrifugation at 2800 rpm for 20 minutes. The platelets are then washed in Tyrodes gel buffer without calcium in the presence of 0.1 mM EGTA and again pelleted at 2800 rpm for 20 minutes. This wash process is repeated. The washed platelet pellet is resuspended in Tyrodes gel buffer without calcium and adjusted to a concentration of 1.25×10^9 platelets/ml, as determined from a standard curve of absorbance at 530 num vs platelet concentration.
Polystyrene reaction tubes containing various dilutions of PAF (for standard curve determination) or a single concentration of PAF with and without the subject antagonist in a 0.45 ml volume of Tyrodes gel buffer with calcium each receive a 0.05 ml aliquot of the paltelet preparation. After a 90 second incubation period at room temperature, the reaction is stopped by the addition of 0.02 ml of 9.25 % formaldehyde. The platelets are then pelleted by centrifugation at 2800 rpm for 15 minutes at 4° C.
Aliquots (0.1 ml) of the supernatants are added to 3 ml liquid scintillation fluid in polypropylene vials. The samples are then counted for radioactivity in a liquid scintillation counter. The platelets in one set of reaction tubes containing only buffer and labeled platelets are lysed using 0.01 ml 10% Triton TX, and the total reactivity is determined by liquid scintillation counting. The determined dpm represent the total radioactivity in the labelled platelets. The results for each determination are reported as the percentage release of the total radioactivity in the sample. The extent of PAF antagonist activity is expressed as the percent inhibition of ^3 H-serotonin release compared to that amount released by PAF alone.

[3] = tested on: human neutrophils (PAF-induced bead adhesion); test: PAF-induced adhesion of human neutrophils to latex beads; format: cell-based; conditions: Neutrophil, albumin-coated latex beads
Protocol: as §1
Latex bead suspension (0.6 ml; 10% aqueous suspension; particle diameter=1u) is pipeted into a 1.5 ml eppendorf centrifuge tube. The beads are pelleted by centrifugation, the supernatant is discarded and the beads are washed 2 times with 1 ml 0.9% saline. To the pelleted beads is added 0.5 ml 20 mg/ml human serum albunim (HSA) in Krebs-Ringer buffer.
Allow bed-albumin mixture to sit at room temperature for 10 minutes, centrifuge for 1 minute and remove the supernatant, and wash albumin-coated beads 3 times with saline. Resuspend the beads in 1 ml of Krebs-Ringer.
Human neutrophils are prepared as described for the neutrophil degranulation assay and 10^7 cells are added to 0.3 ml of Krebs-Ringerin the presence and absence of PAF and putative antagonist and are incubated at 37° for an appropriate period of time.
The albumin-coated beads are then added in 0.05 ml to give a final bead concentration of 1% v/v, resulting in a bead to neutrophil ratio of 100:1. The tubes containing cells and beads are then placed in an agitating water bath at 37° C. and 120 oscillation per minute for 10 minutes. The reaction is stopped by adding an equal volume of 2.5% glutaraldehyde in saline. The reaction tubes are allowed to stand at room temperature for 30 minutes. The cells are then washed 3 times (with centrifugation at 1000 rpm for 5 minutes) with saline to remove the unadhered latex beads and resuspended in 0.3 ml saline.
Wet mounts are prepared and adherence is examined by light microscopy at 400x. […] Activity of the antagonists is expressed as the percent inhibition of PAF-induced adherence.

[4] = Stability of free base solution on exposure to air (tlc); format: physicochemical; conditions: 1 h exposure to air
Protocol: 1-(3,4-Dimethoxybenzyl)-6-methyl-3,4-dihydroisoquinoline (D2). Amide D1 (24.7 g, 0.079 mol) and 850 ml of tetrachloroethane was distilled to remove 50 ml of solvent. This solution was added to a solution of 90 g (0.63 mol) of P2 O5 in HMDSO which was heated at 115°. The reaction mixture was heated at 155°-170° for 5 h at which time the reaction appeared complete by tlc. To the cooled reaction mixture was added over 1 h a solution of 100 g of NaOH in 1 l of water under nitrogen with stirring. The organic layer was separated and filtered through a pad of MgSO4. One-half of the tetrachloroethane solution was partially evaporated and […] hydrochloric acid (25 ml) wa added. The resulting mixture was evaporated to dryness. The residue was twice treated with EtOH (100 ml) and evaporated to dryness. The residue was washed with two 100 ml portions of ether and taken up to 100 ml of acetone and evaporated to give a foam. The foam was washed with ethyl acetate (60 ml) and dissolved in 75 ml of i-PrOH, treated with charcoal, filtered and boiled down to 50 ml. The solution deposited 3.4 g of 1-(3,4-dimethoxybenzyl)-6-methyl-3, 4-dihydroisoquinoline hydrochloride after storing overnight at 4°. Dilution of the mother liquor with ethyl acetate and ether gave another 2.9 g to raise the yield to 6.3 g (48% based on one-half of crude product purified).

[5] = tested on: PAF-induced edema; test: PAF-induced edema formation in rabbit skin; format: in vivo; conditions: for % Inhibition of PAF-induced edema: local intradermal, with PAF+PGE2, 30 minutes
Protocol: PAF (10^-9 moles/site) was mixed with […] (a vasodilator, 3×10^-10 moles/site) and injected intradermally in 0.1 ml volumes with six replicates per sample. After 30 minutes a cardiac blood sample was taken and the plasma perpared. The animal was then killed, the dorsal skin removed and injection sites were punched out. Skin samples were counted in a counter together with plasma samples and the amount of plasma leakage in skin sites expressed in terms of 1 μl plasma by comparing the skin radioactivity with that in 1 μl plasma.

SMILES	inhibition at 30 µM [1]	inhibition at 30 µM ([2]; PAF-induced, rabbit platelets)	inhibition at 30 µM [3]	IC50 ([2]; PAF-induced, rabbit platelets)	also measured
COc1ccc(C2=NCCc3cc(O)ccc32)cc1OC [Compound 12a, 1-(3,4-Dimethoxyphenyl)-6-hydroxy-3,4-dihydroisoquinoline]	40%	12%	90%		
COc1ccc(C2=NCCc3cc(OCCN(C)C)ccc32)cc1OC [Compound 12b]	10%	0%	2%		
COc1ccc(C2=NCCc3ccccc32)cc1OC [Compound A2, 1-(3,4-Dimethoxyphenyl)-3,4-dihydroisoquinoline]	7%	48%	2%		
COc1ccc(-c2nccc3ccccc23)cc1OC [Compound A3, 1-(3,4-dimethoxyphenyl) isoquinoline]	38%	80%	2%		
COc1ccc(C2=NCCc3cc(C)ccc32)cc1OC [Compound C2, 1-(3,4-Dimethoxyphenyl)-6-methyl-3,4-dihydroisoquinoline]	16%		10%		inhibition at 30 µM ([2]; lot 2): 0%; inhibition at 30 µM ([2]; lots 1 & 3): 38%
COc1ccc(-c2nccc3cc(C)ccc23)cc1OC [Compound C3, 1-(3,4-dimethoxyphenyl)-6-methylisoquinoline]	78%	100%	30%		IC50 ([1]; Homo sapiens, read-out: PAF-Induced Neutrophil Degranulation I50): > 30 µM
COc1ccc(CC2=NCCc3cc(C)ccc32)cc1OC [Compound D2, 1-(3,4-Dimethoxybenzyl)-6-methyl-3,4-dihydroisoquinoline]	17%	70%	23%	5.6 µM	Decomposition of free base in solution by tlc [4]: extensive decomposition
COc1ccc(Cc2nccc3cc(C)ccc23)cc1OC [Compound D3, 1-(3,4-Dimethoxybenzyl)-6-methylisoquinoline]	57%	100%	100%	25 µM	
COc1ccc(CCC2=NCCc3cc(C)ccc32)cc1OC [Compound E2]	70%	92%	2%		
COc1ccc(CCc2nccc3cc(C)ccc23)cc1OC [Compound E3, 1-[2-(3,4-Dimethoxyphenyl)ethyl]-6-methylisoquinoline]	77%	90%	9%		
COc1cc(C2=NCCc3cc(C)ccc32)cc(OC)c1OC [Compound F2, 1-(3,4,5-Trimethoxyphenyl)-6-methyl-3,4-dihydroisoquinoline]	27%	48%	26%		
COc1cc(-c2nccc3cc(C)ccc23)cc(OC)c1OC [Compound F3, 1-(3,4,5-Trimethoxyphenyl)-6-methylisoquinoline]	60%	89%	87%		
COc1cccc(C2=NCCc3cc(C)ccc32)c1 [Compound G2, 1-(3-Methoxyphenyl)-6-methyl-3,4-dihydroisoquinoline]	14%	100%	42%	20 µM	
COc1ccc(C2=NCCc3cc(C)ccc32)cc1 [Compound H2, 1-(4-Methoxyphenyl)-6-methyl-3,4-dihydroisoquinoline]	25%	100%	3%	18 µM	
COc1ccc(C2=NCCc3cc(OCc4ccccc4)ccc32)cc1OC [Compound I2, 1-(3,4-Dimethoxyphenyl)-6-benzyloxy-3,4-dihydroisoquinoline]	72%	100%	10%	12.5 µM	
COc1ccc(Cc2nccc3cc(OCc4ccccn4)ccc23)cc1OC [Compound J3a, 1-(3,4-Dimethoxybenzyl)-6-(2-pyridylmethyloxy) isoquinoline]	70%	88%	12%	0.8 µM	% Inhibition of PAF-induced edema ([5]; 10^-7 moles/site): 62%; % Inhibition of PAF-induced edema ([5]; 10^-8 moles/site): 30%; % Inhibition of PAF-induced edema ([5]; 10^-9 moles/site): -7%; % Inhibition of PAF-induced edema ([5]; 10^-10 moles/site): 2%
CCCCC[C@H](O)/C=C/[C@H]1[C@H](O)CC(=O)[C@@H]1C/C=C\CCCC(=O)O [PGE2, reference compound]					Edema formation in rabbit skin (response to agent alone) ([5]; intradermal, alone, compared with saline): not much greater than seen with saline
